Source: ChEMBL document CHEMBL5131471, “Design, synthesis and mechanism studies of novel dual PARP1/BRD4 inhibitors against pancreatic cancer” (Eur J Med Chem, 2022)
Calls of active or inactive are those of the source. The rule behind the calls is not given here.

What was measured:
SW1990 [1] = assay: Effect on BRCA2 gene expression in human SW1990 cells at 4 uM by Q-PCR analysis; assay type: functional, cell-based
SW1990 [2] = assay: Induction of DNA damage in human SW1990 cells assessed as increase in gammaH2AX expression at 4 uM incubated for 4 days by DAPI staining based laser confocal microscopic analysis; assay type: functional, cell-based; settings: time 4.0 day
SW1990 [3] = assay: Induction of apoptosis in human SW1990 cells assessed as late apoptotic cells at 4 uM measured after 4 days by Annexin V-FITC and propidium iodide staining based flow cytometry (reference value: 7.23%); assay type: functional; settings: time 4 day
SW1990 [4] = assay: Effect on MDC1 gene expression in human SW1990 cells at 1 uM in presence of Olaparib by Q-PCR analysis; assay type: functional, cell-based
SW1990 [5] = assay: Effect on Rad51 gene expression in human SW1990 cells at 4 uM by Q-PCR analysis; assay type: functional, cell-based
SW1990 [6] = assay: Induction of DNA damage in human SW1990 cells assessed as increase in tail DNA at 4 uM incubated for 4 days by comet assay; assay type: functional, cell-based; settings: time 4.0 day
SW1990 [7] = assay: Downregulation of Ki67 expression in human SW1990 cells at 15 mg/kg, ip in presence of 45 mg/kg, ip Olaparib measured after 28 days by immuno histochemical staining based fluorescence microscopic analysis; assay type: functional, organism-based; settings: time 28.0 day
SW1990 [8] = assay: Effect on E2F2 gene expression in human SW1990 cells at 4 uM by Q-PCR analysis; assay type: functional, cell-based
SW1990 [9] = assay: Effect on CDC25B gene expression in human SW1990 cells at 1 uM in presence of Olaparib by Q-PCR analysis; assay type: functional, cell-based
SW1990 [10] = assay: Effect on CCNB1 gene expression in human SW1990 cells at 4 uM by Q-PCR analysis; assay type: functional, cell-based
[11] = Toxicity in nude mouse xenografted with human SW1990 cells assessed as lung damage at 15 mg/kg, ip administered for 28 days by H and E staining based fluorescence microscopic analysis; assay type: organism-based; settings: in vivo, 672 h, time 28 day
SW1990 [12] = assay: Effect on HEXIM1 gene expression in human SW1990 cells at 1 uM in presence of Olaparib by Q-PCR analysis; assay type: functional, cell-based
SW1990 [13] = assay: Effect on Rad51 gene expression in human SW1990 cells at 1 uM in presence of Olaparib by Q-PCR analysis; assay type: functional, cell-based
SW1990 [14] = assay: Effect on CDC25A gene expression in human SW1990 cells at 1 uM in presence of Olaparib by Q-PCR analysis; assay type: functional, cell-based
Mus musculus [15] = assay: Inhibition of homologous recombinant repair in nude mouse xenografted with human SW1990 cells assessed as reversal of olaparib-induced c-Myc expression at 30 mg/kg, ip measured after 4 days by Western blot analysis; assay type: functional, organism-based; settings: time 4.0 day
Mus musculus [16] = assay: Inhibition of CDK1 expression in nude mouse xenografted with human SW1990 cells at 30 mg/kg, ip measured after 4 days by Q-PCR analysis; assay type: functional, organism-based; settings: time 4.0 day
Mus musculus [17] = assay: Inhibition of homologous recombinant repair in nude mouse xenografted with human SW1990 cells assessed as reversal of olaparib-induced ALDH1A1 expression at 30 mg/kg, ip after 4 days by Western blot analysis; assay type: functional, organism-based; settings: time 4.0 day
SW1990 [18] = assay: Effect on CDC25A gene expression in human SW1990 cells at 1 to 2 uM by Q-PCR analysis; assay type: functional, cell-based; settings: dose 1-2 µM
SW1990 [19] = assay: Induction of DNA damage in human SW1990 cells assessed as increase in gammaH2AX expression at 1 to 2 uM incubated for 4 days by DAPI staining based laser confocal microscopic analysis; assay type: functional, cell-based; settings: dose 1-2 µM, time 4.0 day
SW1990 [20] = assay: Inhibition of homologous recombinant repair in human SW1990 cells assessed as reversal of Olaparib-induced MDC1 expression at 1 to 2 uM after 4 days by Western blot analysis; assay type: functional, cell-based; settings: dose 1-2 µM, time 4.0 day
SW1990 [21] = assay: Inhibition of CDK6 protein expression in human SW1990 cells at 1 to 2 uM measured after 4 days by Western blot analysis; assay type: functional, cell-based; settings: dose 1-2 µM, time 4.0 day
Mus musculus [22] = assay: Inhibition of CDC25B expression in nude mouse xenografted with human SW1990 cells at 30 mg/kg, ip measured after 4 days by Q-PCR analysis; assay type: functional, organism-based; settings: time 4.0 day
SW1990 [23] = assay: Effect on FOXO1 gene expression in human SW1990 cells at 1 to 2 uM by Q-PCR analysis; assay type: functional, cell-based; settings: dose 1-2 µM
Mus musculus [24] = assay: Induction of DNA damage in human SW1990 cells xenografted in nude mouse assessed as increase in gammaH2AX at 30 mg/kg, ip by immunohistochemical analysis; assay type: functional, organism-based
[25] = Toxicity in nude mouse xenografted with human SW1990 cells assessed as liver damage at 30 mg/kg, ip administered for 28 days by H and E staining based fluorescence microscopic analysis; assay type: organism-based; settings: in vivo, 672 h, time 28 day
SW1990 [26] = assay: Induction of apoptosis in human SW1990 cells assessed as necrotic cells at 1 uM measured after 4 days by Annexin V-FITC and propidium iodide staining based flow cytometry (reference value: 2.45%); assay type: functional; settings: time 4 day
Mus musculus [27] = assay: Inhibition of CCND1 expression in nude mouse xenografted with human SW1990 cells at 30 mg/kg, ip measured after 4 days by Q-PCR analysis; assay type: functional, organism-based; settings: time 4.0 day
SW1990 [28] = assay: Inhibition of homologous recombinant repair in human SW1990 cells assessed as reversal of Olaparib-induced c-Myc expression at 1 to 2 uM after 4 days by Western blot analysis; assay type: functional, cell-based; settings: dose 1-2 µM, time 4.0 day
SW1990 [29] = assay: Effect on HEXIM1 gene expression in human SW1990 cells at 1 to 2 uM by Q-PCR analysis; assay type: functional, cell-based; settings: dose 1-2 µM
Mus musculus [30] = assay: Inhibition of CDK1 expression in nude mouse xenografted with human SW1990 cells at 30 mg/kg, ip measured after 4 days by Western blot analysis; assay type: functional, organism-based; settings: time 4.0 day
SW1990 [31] = assay: Upregulation of BRCA2 expression in human SW1990 cells at 6 uM measured after 4 days by Western blot analysis; assay type: functional, cell-based; settings: time 4.0 day
SW1990 [32] = assay: Effect on BRCA1 gene expression in human SW1990 cells at 6 uM by Q-PCR analysis; assay type: functional, cell-based
SW1990 [33] = assay: Induction of apoptosis in human SW1990 cells assessed as necrotic cells at 6 uM measured after 4 days by Annexin V-FITC and propidium iodide staining based flow cytometry (reference value: 2.45%); assay type: functional; settings: time 4 day
SW1990 [34] = assay: Induction of BRCA1 accumulation in nucleus of human SW1990 cells at 6 uM measured after 4 days by Western blot analysis; assay type: functional, cell-based; settings: time 4.0 day
Mus musculus [35] = assay: Upregulation of CDK6 expression in nude mouse xenografted with human SW1990 cells at 45 mg/kg, ip measured after 4 days by Q-PCR analysis; assay type: functional, organism-based; settings: time 4.0 day
Mus musculus [36] = assay: Upregulation of BRD4 expression in nude mouse xenografted with human SW1990 cells at 45 mg/kg, ip measured after 28 days by DAPI staining based laser confocal microscopic analysis; assay type: functional, organism-based; settings: time 28.0 day
Mus musculus [37] = assay: Upregulation of CCNB1 expression in nude mouse xenografted with human SW1990 cells at 45 mg/kg, ip measured after 4 days by Q-PCR analysis; assay type: functional, organism-based; settings: time 4.0 day
SW1990 [38] = assay: Effect on BRCA2 gene expression in human SW1990 cells at 6 uM by Q-PCR analysis; assay type: functional, cell-based
SW1990 [39] = assay: Effect on c-Myc gene expression in human SW1990 cells at 6 uM by Q-PCR analysis; assay type: functional, cell-based

## Cc1sc2c(c1C)C(c1ccc(Cl)cc1)=N[C@@H](CC(=O)OC(C)(C)C)c1nnc(C)n1-2
SW1990 [1]
  Activity: Active
SW1990 [2]
  Activity: Active
SW1990 [3]
  Activity: 24.9%
SW1990 [4]
  Activity: Active
SW1990 [5]
  Activity: Active
SW1990 [6]
  Activity: Active
SW1990 [7]
  Activity: Active
SW1990 [8]
  Activity: Active
SW1990 [9]
  Activity: Active
SW1990 [10]
  Activity: Active
[11]
  Activity: Non-Toxic
SW1990 [12]
  Activity: Active
SW1990 [13]
  Activity: Active
SW1990 [14]
  Activity: Active

## Cc1noc(C)c1-c1ccc2c(c1)C(c1ccccc1)N(Cc1nc3c(C(N)=O)cccc3[nH]1)C(=O)N2C (centres undefined)
Mus musculus [15]
  inhibition: Active
Mus musculus [16]
  inhibition: Active
Mus musculus [17]
  inhibition: Active
SW1990 [18]
  Activity: Active
SW1990 [19]
  Activity: Active
SW1990 [20]
  inhibition: Active
SW1990 [21]
  inhibition: Active
Mus musculus [22]
  inhibition: Active
SW1990 [23]
  Activity: Active
Mus musculus [24]
  Activity: Active
[25]
  Activity: Non-Toxic
SW1990 [26]
  Activity: 3.62%
Mus musculus [27]
  inhibition: Active
SW1990 [28]
  inhibition: Active
SW1990 [29]
  Activity: Active
Mus musculus [30]
  inhibition: Active

## O=C(c1cc(Cc2n[nH]c(=O)c3ccccc23)ccc1F)N1CCN(C(=O)C2CC2)CC1 [OLAPARIB]
SW1990 [31]
  Activity: Active
SW1990 [32]
  Activity: Active
SW1990 [33]
  Activity: 1.66%
SW1990 [34]
  Activity: Active
Mus musculus [35]
  Activity: Active
Mus musculus [36]
  Activity: Active
Mus musculus [37]
  Activity: Active
SW1990 [38]
  Activity: Active
SW1990 [39]
  Activity: Active
